These results are taken from patent publication US6730665B1, “Treatment of bone cancer” (Mayo Foundation for Medical Education and Research, priority 1999, dated 2004).

One test deals with estrogen receptors. The settings on record: cited from earlier work.
Test [1] concerns MG63 human osteosarcoma cells. Description: Cell survival, viable cell count with trypan blue. It is filed as cell-based. The settings on record: for cell death: 72 hrs. Here is the method: (§1) MG63 and TE85 human osteosarcoma cells, and ROS 17/2.8 rat osteosarcoma cells were grown in DMEM/F12 phenol-red free medium containing 10% charcoal-stripped fetal bovine serum (FBS) and supplemented with 100 units/ml penicillin, 100 μg/ml streptomycin. Cell were incubated at 37° C. under 5% CO2 in air. Cells were plated at 5×10^4 cells per well into 24 well plates containing 1 ml of medium per well. After allowing the cells to attach overnight, media in the wells were replaced with fresh 1 ml medium. Human fetal osteoblasts (hFOB) cells and hFOB cells overexpressing estrogen receptor-alpha (hFOB-ERα) and estrogen receptor-beta (hFOB-ERβ) were grown in DMEM/F12 medium containing FBS, penicillin, streptomycin and Geneticin (300 μg/mL). The laboratory of Dr. B. L. Riggs at Mayo Clinic provided primary human osteoblast (HOB) cells. HOB cells were basically established from cancellous bone obtained as waste from orthopedic procedures and cultured as explants to generate the osteoblast-like monolayers as described by Borke et al., J. Clin. Endocrinol. Metab., 1988, 67:1299-1304. Human FOB cells and hFOB cells stably transfected with estrogen receptors (ERs) were maintained at 34° C., while all other cells were incubated at 37° C. under 5% CO2 in air.
(§2) Estrogen metabolites were diluted 1000 fold to give the final required concentrations in each well, and maintained for 72 hrs. The metabolites 2ME, 2OHE, and E2 were purchased from Sigma Chemical Company (St. Louis, Mo.). Stock solutions for each metabolite were made in 95% ethanol. Cell growth was measured by taking the viable cell count. At the end of metabolite treatment, cells were harvested, stained with trypan blue, and counted under a light microscope.
MG63 cells were treated with 0, 2, and 10 μM concentrations of 2ME in the presence or absence of 100 nM ICI for 72 hours. The cells were harvested and the viable cell counts were taken after staining with trypan blue.

For the next test, the system named is female Fisher 344 rats. Description: Cancellous bone histomorphometry of rat proximal tibial metaphysis after oral 2ME. It is filed as in vivo. The settings on record: 100 mg/kg/day oral gavage 13 days, mean ± SE. Here is the method:
All studies were approved by the Institutional Animal Care and Use Committee of the Mayo Clinic, Rochester, Minn. Rats were kept in plastic cages (3 per cage) under standard conditions of a 12 hr dark and 12 hr light cycle with food (Purina Laboratory rodent diet 5001, Ralston-Purina, St. Louis, Mo.) and water ad libitum. Rooms were maintained at a temperature of 24° C.
Fluorochromes were given […] tail vein.
Bone histomorphometry Histomorphometric measurements were performed with the OsteoMeasure Analysis System (OsteoMetrics, Atlanta, Ga.), which consisted of a Pentium 1133 computer coupled to a photomicroscope and image analysis system. […] The region of interest was traced, and the line lengths and area bounded by lines were calculated automatically.
Cancellous bone measurements on stained sections The proximal tibial metaphysis was dehydrated in a series of increasing concentrations of ethanol, embedded without demineralization in a mixture of methyimethacrylate-2-hydroxyethyl and methacrylate (12.5:1) to retain the fluorochrome labels, and sectioned at a thickness of 5 μm (Reichert-Jung Model 2065 Microtome, Heidelberg Germany). Sections were stained with toluidine blue. A standard sampling site was established in the secondary spongiosa of the metaphysis, 1 mm distal to the calcein label that was deposited at the metaphyseal growth plate, its center perpendicular to the long axis of each bone and extending 2.0 mm distal to the starting point. This method adjusts for longitudinal growth such that only the portion of the secondary spongiosa present throughout the experiment was sampled. A total metaphyseal area of 2.88 mm^2 was sampled for each section.
Bone volume measurements Cancellous bone area and cancellous perimeter were determined as described by Turner, R. T. et al., 1998, supra. The following indices of trabecular architecture were calculated: 1) trabecular thickness; 2) trabecular number; and 3) trabecular separation.
Bone formation measurements and calculations Bone formation rate (%/day, tissue area referent) was calculated as the double-labeled perimeter (μn) multiplied by the mineral apposition rate (μm/day) and divided by the tissue area (mm^2); bone formation rate (perimeter referent) was calculated as the double-labeled perimeter (μm) multiplied by the mineral apposition rate (μm/day) and divided by the total bone perimeter (mm); mineral apposition rate was calculated as the mean distance between the declomycin label and the calcein label by the time interval (11 days); and double-labeled perimeter (tissue are referent) was measured as the length with declomycin and calcein labels (mm/mm^2 of cancellous tissue area).
Statistical Analvses All values are expressed as mean±standard error (SE). Significant differences between groups were determined by Fisher's Protected Least Significant Difference post hoc test for multiple group comparisons following detection of significance by 1-way ANOVA. Significance was considered at p values ≦0.05.

Test [2] relates to primary human osteoblast (HOB) cells. Description: Cell survival, viable cell count with trypan blue. It is filed as cell-based. Here is the method:
as §1, §2

Test [3] deals with ROS 17/2.8 rat osteosarcoma cells. Description: Cell survival, viable cell count with trypan blue. The test is classed as cell-based. The settings on record: 2 μM, 72 h. Here is the method: as §1, §2
Test [4] deals with TE85 human osteosarcoma cells. Description: Cell survival, viable cell count with trypan blue. The test is classed as cell-based. The settings on record: 2 μM, 72 h. Here is the method: as §1, §2

In the case of `COc1cc2c(cc1O)CC[C@@H]1[C@@H]2CC[C@]2(C)[C@@H](O)CC[C@@H]12` [2ME, 2-methoxyestradiol], the “affinity for estrogen receptors (in words)” value in the test with estrogen receptors is on record as “negligible affinity”. In addition, the cell survival rate in test [1] (2 μM, 72 h) was determined as 21%. In addition, the “reduction of MG63 cell survival” value in test [1] (2 μM, 72 hours) is given as “approximately 80%”. Besides, in test [1] (20 μM), the cell death entry is “about 95%”. Also, in test [1] (50 μM), the cell death is about 100%. Moreover, in the test with female Fisher 344 rats, the BFR/BS came out at 0.35 ± 0.03 %/day, the BV/TV came to 17.7 ± 1.9%, the “Mineral Apposition Rate” value is 172 ± 0.05 μm/day and the Tb.Sp was 297 ± 46 μm. The molecule also returned a Tb.Th in the test with female Fisher 344 rats of 57 ± 2 μm. Besides, the “growth of normal osteoblasts (in words)” value in test [2] was “not affected”. Also, in test [2] (2 μM, 72 h), the survival stood at 89%. Further, in test [3], the “cell numbers reduced to” value is given as 19%. The same molecule displayed a cell survival rate in test [4] of 9%.
